Results reported in ChEMBL document CHEMBL5154672, “Design and synthesis of HDAC inhibitors to enhance the therapeutic effect of diffuse large B-cell lymphoma by improving metabolic stability and pharmacokinetic characteristics” (Eur J Med Chem, 2022).

Tests used:
[1] = Oral bioavailability in ICR mouse at 10 mg/kg measured upto 24 hrs by LC-MS/MS analysis; type: ADME, organism-based; conditions: in vivo
[2] = MRT in dog plasma at 1 mg/kg, iv measured upto 24 hrs by LC-MS/MS analysis; type: ADME, organism-based, Canis lupus familiaris
[3] = Volume of distribution at steady state in monkey plasma at 1 mg/kg, iv measured upto 24 hrs by LC-MS/MS analysis; type: ADME, organism-based, Macaca fascicularis; conditions: cynomolgus monkey, read-out: Vdss
[4] = Half life in ICR mouse at 10 mg/kg, po measured upto 24 hrs by LC-MS/MS analysis; type: ADME, organism-based; conditions: in vivo
[5] = Half life in monkey plasma at 1 mg/kg, iv measured upto 24 hrs by LC-MS/MS analysis; type: ADME, organism-based, Macaca fascicularis; conditions: cynomolgus monkey
[6] = Toxicity against CB.17 SCID mouse xenografted with human TMD8 cells assessed as effect on liver at 100 mg/kg/day, po for 21 consecutive days by H and E staining method; type: organism-based; conditions: in vivo, 504 h, time 21 day
[7] = Clearance in ICR mouse at 2 mg/kg, iv measured upto 24 hrs by LC-MS/MS analysis; type: ADME, organism-based; conditions: in vivo
[8] = Half life in dog plasma at 1 mg/kg, iv measured upto 24 hrs by LC-MS/MS analysis; type: ADME, organism-based, Canis lupus familiaris
[9] = AUC (0 to infinity) in ICR mouse at 10 mg/kg, po measured upto 24 hrs by LC-MS/MS analysis; type: ADME, organism-based; design: time < 24 hrs, dose 10 mg/kg, route po; conditions: in vivo
[10] = MRT in ICR mouse at 10 mg/kg, po measured upto 24 hrs by LC-MS/MS analysis; type: ADME, organism-based; conditions: in vivo
[11] = Cmax in monkey plasma at 10 mg/kg, po measured upto 24 hrs by LC-MS/MS analysis; type: ADME, organism-based, Macaca fascicularis; design: time < 24 hrs, dose 10 mg/kg, route po; conditions: cynomolgus monkey
[12] = Oral bioavailability in ICR mouse at 100 mg/kg measured upto 24 hrs by LC-MS/MS analysis; type: ADME, organism-based; conditions: in vivo
[13] = Cmax in ICR mouse at 10 mg/kg, po measured upto 24 hrs by LC-MS/MS analysis; type: ADME, organism-based; design: dose 10 mg/kg, time < 24 hrs, route po; conditions: in vivo
[14] = AUC (0 to infinity) in monkey plasma at 10 mg/kg, po measured upto 24 hrs by LC-MS/MS analysis; type: ADME, organism-based, Macaca fascicularis; design: time < 24 hrs, dose 10 mg/kg, route po; conditions: cynomolgus monkey
[15] = MRT in ICR mouse at 2 mg/kg, iv measured upto 24 hrs by LC-MS/MS analysis; type: ADME, organism-based; conditions: in vivo
[16] = AUC (0 to infinity) in ICR mouse at 2 mg/kg, iv measured upto 24 hrs by LC-MS/MS analysis; type: ADME, organism-based; design: time < 24 hrs, dose 2 mg/kg, route iv; conditions: in vivo
[17] = MRT in ICR mouse at 100 mg/kg, po measured upto 24 hrs by LC-MS/MS analysis; type: ADME, organism-based; conditions: in vivo
[18] = Toxicity against CB.17 SCID mouse xenografted with human TMD8 cells assessed as body weight loss at 50 to 100 mg/kg/day, po for 21 consecutive days; type: organism-based; conditions: in vivo, 504 h, dose 50-100 mg/kg/day, time 21 day
[19] = Toxicity against CB.17 SCID mouse xenografted with human TMD8 cells assessed as effect on spleen at 100 mg/kg/day, po for 21 consecutive days by H and E staining method; type: organism-based; conditions: in vivo, 504 h, time 21 day
[20] = AUC (0 to infinity) in dog plasma at 1 mg/kg, iv measured upto 24 hrs by LC-MS/MS analysis; type: ADME, organism-based, Canis lupus familiaris; design: dose 1 mg/kg, time < 24 hrs, route iv
[21] = Cmax in ICR mouse at 100 mg/kg, po measured upto 24 hrs by LC-MS/MS analysis; type: ADME, organism-based; design: time < 24 hrs, dose 100 mg/kg, route po; conditions: in vivo
[22] = MRT in monkey plasma at 10 mg/kg, po measured upto 24 hrs by LC-MS/MS analysis; type: ADME, organism-based, Macaca fascicularis; conditions: cynomolgus monkey
[23] = Volume of distribution at steady state in dog plasma at 1 mg/kg, iv measured upto 24 hrs by LC-MS/MS analysis; type: ADME, organism-based, Canis lupus familiaris; conditions: read-out: Vdss
[24] = Oral bioavailability in monkey plasma at 10 mg/kg measured upto 24 hrs by LC-MS/MS analysis; type: ADME, organism-based, Macaca fascicularis; conditions: cynomolgus monkey
[25] = Cmax in dog plasma at 10 mg/kg, po measured upto 24 hrs by LC-MS/MS analysis; type: ADME, organism-based, Canis lupus familiaris; design: time < 24 hrs, dose 10 mg/kg, route po
[26] = Clearance in monkey plasma at 1 mg/kg, iv measured upto 24 hrs by LC-MS/MS analysis; type: ADME, organism-based, Macaca fascicularis; conditions: cynomolgus monkey, in vivo
[27] = Half life in dog plasma at 10 mg/kg, po measured upto 24 hrs by LC-MS/MS analysis; type: ADME, organism-based, Canis lupus familiaris
[28] = Clearance in dog plasma at 1 mg/kg, iv measured upto 24 hrs by LC-MS/MS analysis; type: ADME, organism-based, Canis lupus familiaris; conditions: in vivo
[29] = Half life in monkey plasma at 10 mg/kg, po measured upto 24 hrs by LC-MS/MS analysis; type: ADME, organism-based, Macaca fascicularis; conditions: cynomolgus monkey
TMD8 = assay: In vivo antitumor activity against TMD8 cells xenografted in CB.17 SCID mouse assessed as tumor growth inhibition at 100 mg/kg/day, po for 21 consecutive days measured on day 21 by Vernier caliper relative to control; type: functional, Homo sapiens; conditions: TMD8, 504 h, time 21 day, read-out: TGI
[30] = Half life in ICR mouse at 2 mg/kg, iv measured upto 24 hrs by LC-MS/MS analysis; type: ADME, organism-based; conditions: in vivo
[31] = Aqueous solubility of the compound; type: physicochemical; conditions: aqueous medium
[32] = AUC (0 to infinity) in monkey plasma at 1 mg/kg, iv measured upto 24 hrs by LC-MS/MS analysis; type: ADME, organism-based, Macaca fascicularis; design: time < 24 hrs, dose 1 mg/kg, route iv; conditions: cynomolgus monkey
[33] = Oral bioavailability in dog plasma at 10 mg/kg measured upto 24 hrs by LC-MS/MS analysis; type: ADME, organism-based, Canis lupus familiaris
[34] = Toxicity against CB.17 SCID mouse xenografted with human TMD8 cells assessed as effect on heart at 100 mg/kg/day, po for 21 consecutive days by H and E staining method; type: organism-based; conditions: in vivo, 504 h, time 21 day
[35] = MRT in dog plasma at 10 mg/kg, po measured upto 24 hrs by LC-MS/MS analysis; type: ADME, organism-based, Canis lupus familiaris
[36] = MRT in monkey plasma at 1 mg/kg, iv measured upto 24 hrs by LC-MS/MS analysis; type: ADME, organism-based, Macaca fascicularis; conditions: cynomolgus monkey
[37] = Toxicity against CB.17 SCID mouse xenografted with human TMD8 cells assessed as effect on lung at 100 mg/kg/day, po for 21 consecutive days by H and E staining method; type: organism-based; conditions: in vivo, 504 h, time 21 day
[38] = Half life in ICR mouse at 100 mg/kg, po measured upto 24 hrs by LC-MS/MS analysis; type: ADME, organism-based; conditions: in vivo
[39] = Toxicity against CB.17 SCID mouse xenografted with human TMD8 cells assessed as effect on kidney at 100 mg/kg/day, po for 21 consecutive days by H and E staining method; type: organism-based; conditions: in vivo, 504 h, time 21 day
[40] = AUC (0 to infinity) in ICR mouse at 100 mg/kg, po measured upto 24 hrs by LC-MS/MS analysis; type: ADME, organism-based; design: dose 100 mg/kg, time < 24 hrs, route po; conditions: in vivo
[41] = AUC (0 to infinity) in dog plasma at 10 mg/kg, po measured upto 24 hrs by LC-MS/MS analysis; type: ADME, organism-based, Canis lupus familiaris; design: time < 24 hrs, dose 10 mg/kg, route po

Cl.Nc1ccccc1NC(=O)c1ccc(CN2CCC/C(=C\c3ccccn3)C2=O)cc1
bioavailability [1]: 45.6%
MRT [2]: 2.26 h
Vd [3]: 0.34 L/kg
half-life [4]: 1.31 h
half-life [5]: 4.31 h
Activity [6]: Non-Toxic
clearance [7]: 27.2 mL/min/kg
half-life [8]: 1.65 h
AUC(0-inf) [9]: 2670 ng·h/mL
MRT [10]: 0.919 h
Cmax [11]: 8520 ng/mL
bioavailability [12]: 91.8%
Cmax [13]: 3960 ng/mL
AUC(0-inf) [14]: 53200 ng·h/mL
MRT [15]: 0.402 h
AUC(0-inf) [16]: 1250 ng·h/mL
MRT [17]: 0.897 h
Activity [18]: Non-Toxic
Activity [19]: Non-Toxic
AUC(0-inf) [20]: 2550 ng·h/mL
Cmax [21]: 58300 ng/mL
MRT [22]: 8.28 h
Vd [23]: 0.55 L/kg
bioavailability [24]: 27.6%
Cmax [25]: 4740 ng/mL
clearance [26]: 1.35 mL/min/kg
half-life [27]: 1.51 h
clearance [28]: 6.72 mL/min/kg
half-life [29]: 9.14 h
inhibition in vivo at 100 mg/kg/day (TMD8): 77%
half-life [30]: 0.427 h
solubility [31]: > 100 mg/mL
AUC(0-inf) [32]: 15700 ng·h/mL
bioavailability [33]: 58.9%
Activity [34]: Non-Toxic
MRT [35]: 2.71 h
MRT [36]: 3.41 h
Activity [37]: Non-Toxic
half-life [38]: 1.63 h
Activity [39]: Non-Toxic
AUC(0-inf) [40]: 57200 ng·h/mL
AUC(0-inf) [41]: 15100 ng·h/mL
